Source: patent US20230085307A1, “PYRIDAZINONE COMPOUND AND HERBICIDE” (NISSAN CHEMICAL CORPORATION, priority 2019, published 2023)

Tests used:
[1] = test system: velvetleaf; experiment: Test Example 4: herbicidal effect by soil treatment (Table 19, symbol M); format: in vivo, velvetleaf (Abutilon theophrasti); details: amount of applied herbicide 320 g/ha
Outline: (§1)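 Three weeks of greenhouse growth at 25° C. to 30° C. followed a uniform surface spray of water-diluted emulsion at a predetermined herbicide amount. Seeds had been sown beforehand under about 1.5 cm of sterilized diluvial soil. Grading followed criteria set out in an earlier test.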

[2] = test system: green foxtail; experiment: Test Example 4: herbicidal effect by soil treatment (Table 19, symbol G); format: in vivo, green foxtail (Setaria viridis); details: amount of applied herbicide 320 g/ha
Outline: as §1

[3] = test system: barnyard grass; experiment: Test Example 4: herbicidal effect by soil treatment (Table 19, symbol H); format: in vivo, barnyard grass (Echinochloa crus-galli); details: amount of applied herbicide 320 g/ha
Outline: as §1

[4] = test system: windgrass; experiment: Test Example 5: herbicidal effect by foliage application, plastic box (Table 20, symbol L); format: in vivo, windgrass (Apera spica-venti); details: foliage application
Outline: (§2)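 Plants sown in sterilized diluvial soil and grown 14 days in a greenhouse at 25° C to 30° C, then sprayed on the foliage with the compound's emulsion diluted in water to a predetermined herbicide amount. Injury to weeds and crops scored three weeks after application on a visual rating scale.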

[5] = test system: lambsquarters; experiment: Test Example 4: herbicidal effect by soil treatment (Table 19, symbol O); format: in vivo, lambsquarters (Chenopodium album); details: amount of applied herbicide 320 g/ha
Outline: as §1

[6] = test system: southern crabgrass; experiment: Test Example 5: herbicidal effect by foliage application, plastic box (Table 20, symbol F); format: in vivo, southern crabgrass (Digitaria ciliaris); details: foliage application
Outline: as §2

[7] = test system: lambsquarters; experiment: Test Example 5: herbicidal effect by foliage application, plastic box (Table 20, symbol O); format: in vivo, lambsquarters (Chenopodium album); details: foliage application
Outline: as §2

[8] = test system: barnyard grass; experiment: Test Example 3: herbicidal effect by foliage application, Wagner pot (Table 18, symbol H); format: in vivo, barnyard grass (Echinochloa crus-galli)
Outline: (§3)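 Plants were sown in alluvial soil held under 0.1–0.5 cm standing water and grown 14 days in a greenhouse at 25–30 °C. An emulsifiable formulation, water-diluted to the set dose, was then sprayed onto the foliage, and effects were scored three weeks later using previously defined criteria.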

[9] = test system: Italian ryegrass; experiment: Test Example 5: herbicidal effect by foliage application, plastic box (Table 20, symbol K); format: in vivo, Italian ryegrass (Lolium multiflorum); details: foliage application
Outline: as §2

[10] = test system: blackgrass; experiment: Test Example 5: herbicidal effect by foliage application, plastic box (Table 20, symbol J); format: in vivo, blackgrass (Alopecurus myosuroides); details: foliage application
Outline: as §2

[11] = test system: false cleavers; experiment: Test Example 4: herbicidal effect by soil treatment (Table 19, symbol Q); format: in vivo, false cleavers (Galium spurium); details: amount of applied herbicide 320 g/ha
Outline: as §1

[12] = test system: Chinese sprangletop; experiment: Test Example 3: herbicidal effect by foliage application, Wagner pot (Table 18, symbol D); format: in vivo, chinese sprangletop (Leptochloa chinensis)
Outline: as §3

[13] = test system: redroot pigweed; experiment: Test Example 5: herbicidal effect by foliage application, plastic box (Table 20, symbol N); format: in vivo, redroot pigweed (Amaranthus retroflexus); details: foliage application
Outline: as §2

[14] = test system: velvetleaf; experiment: Test Example 5: herbicidal effect by foliage application, plastic box (Table 20, symbol M); format: in vivo, velvetleaf (Abutilon theophrasti); details: foliage application
Outline: as §2

[15] = test system: wild oat; experiment: Test Example 4: herbicidal effect by soil treatment (Table 19, symbol I); format: in vivo, wild oat (Avena fatua); details: amount of applied herbicide 320 g/ha
Outline: as §1

[16] = test system: windgrass; experiment: Test Example 4: herbicidal effect by soil treatment (Table 19, symbol L); format: in vivo, windgrass (Apera spica-venti); details: amount of applied herbicide 320 g/ha
Outline: as §1

[17] = test system: wild oat; experiment: Test Example 5: herbicidal effect by foliage application, plastic box (Table 20, symbol I); format: in vivo, wild oat (Avena fatua); details: foliage application
Outline: as §2

[18] = test system: persian speedwell; experiment: Test Example 4: herbicidal effect by soil treatment (Table 19, symbol R); format: in vivo, Persian speedwell (Veronica persica); details: amount of applied herbicide 320 g/ha
Outline: as §1

[19] = test system: chickweed; experiment: Test Example 5: herbicidal effect by foliage application, plastic box (Table 20, symbol P); format: in vivo, common chickweed (Stellaria media); details: foliage application
Outline: as §2

[20] = test system: Italian ryegrass; experiment: Test Example 4: herbicidal effect by soil treatment (Table 19, symbol K); format: in vivo, Italian ryegrass (Lolium multiflorum); details: amount of applied herbicide 320 g/ha
Outline: as §1

[21] = test system: blackgrass; experiment: Test Example 4: herbicidal effect by soil treatment (Table 19, symbol J); format: in vivo, blackgrass (Alopecurus myosuroides); details: amount of applied herbicide 320 g/ha
Outline: as §1

[22] = test system: green foxtail; experiment: Test Example 5: herbicidal effect by foliage application, plastic box (Table 20, symbol G); format: in vivo, green foxtail (Setaria viridis); details: foliage application
Outline: as §2

[23] = test system: redroot pigweed; experiment: Test Example 4: herbicidal effect by soil treatment (Table 19, symbol N); format: in vivo, redroot pigweed (Amaranthus retroflexus); details: amount of applied herbicide 320 g/ha
Outline: as §1

[24] = test system: rice flat sedge; experiment: Test Example 3: herbicidal effect by foliage application, Wagner pot (Table 18, symbol E); format: in vivo, rice flat sedge (Cyperus iria)
Outline: as §3

[25] = test system: southern crabgrass; experiment: Test Example 4: herbicidal effect by soil treatment (Table 19, symbol F); format: in vivo, southern crabgrass (Digitaria ciliaris); details: amount of applied herbicide 320 g/ha
Outline: as §1

[26] = test system: barnyard grass; experiment: Test Example 5: herbicidal effect by foliage application, plastic box (Table 20, symbol H); format: in vivo, barnyard grass (Echinochloa crus-galli); details: foliage application
Outline: as §2

[27] = test system: chickweed; experiment: Test Example 4: herbicidal effect by soil treatment (Table 19, symbol P); format: in vivo, common chickweed (Stellaria media); details: amount of applied herbicide 320 g/ha
Outline: as §1

[28] = test system: persian speedwell; experiment: Test Example 5: herbicidal effect by foliage application, plastic box (Table 20, symbol R); format: in vivo, Persian speedwell (Veronica persica); details: foliage application
Outline: as §2

[29] = 320 g/ha, evaluated 3 weeks after application
[30] = amount of applied herbicide 320 g/ha
[31] = AAH 320 g/ha, three weeks after application

Which results are given for `Cc1nn(C)c(=O)c(-c2c(-c3ccc(Cl)s3)oc3ccc(F)cc23)c1O` [9-047]?
M: velvetleaf, herbicidal effect grade [1]: 0 (Herbicidal rate of 5% or less (almost no effect)); G: green foxtail, herbicidal effect grade [2]: 0 (Herbicidal rate of 5% or less (almost no effect)); H: barnyard grass, herbicidal effect grade [3]: 0 (Herbicidal rate of 5% or less (almost no effect)); L (windgrass) herbicidal effect grade [4, 29]: 0 (Herbicidal rate of 5% or less (almost no effect)); O: lambsquarters, herbicidal effect grade [5]: 0 (Herbicidal rate of 5% or less (almost no effect)); F (southern crabgrass) herbicidal effect grade [6, 29]: 3 (Herbicidal rate of 40% or more and less than 70%); O (lambsquarters) herbicidal effect grade [7, 29]: 1 (Herbicidal rate of 5% or more and less than 20%); Herbicidal effect on H (barnyard grass), foliage application [8, 30]: 2 (Herbicidal rate of 20% or more and less than 40%); K (Italian ryegrass) herbicidal effect grade [9, 29]: 4 (Herbicidal rate of 70% or more and less than 90%); J (blackgrass) herbicidal effect grade [10, 29]: 0 (Herbicidal rate of 5% or less (almost no effect)); Q: false cleavers, herbicidal effect grade [11]: 0 (Herbicidal rate of 5% or less (almost no effect)); Herbicidal effect on D (Chinese sprangletop), foliage application [12, 30]: 0 (Herbicidal rate of 5% or less (almost no effect)); N (redroot pigweed) herbicidal effect grade [13, 29]: 3 (Herbicidal rate of 40% or more and less than 70%); M (velvetleaf) herbicidal effect grade [14, 29]: 2 (Herbicidal rate of 20% or more and less than 40%); I: wild oat, herbicidal effect grade [15]: 0 (Herbicidal rate of 5% or less (almost no effect)); L: windgrass, herbicidal effect grade [16]: 0 (Herbicidal rate of 5% or less (almost no effect)); I (wild oat) herbicidal effect grade [17, 29]: 1 (Herbicidal rate of 5% or more and less than 20%); R: persian speedwell, herbicidal effect grade [18]: 1 (Herbicidal rate of 5% or more and less than 20%); P (chickweed) herbicidal effect grade [19, 29]: 5 (Herbicidal rate of 90% or more (almost completely withered)); K: Italian ryegrass, herbicidal effect grade [20]: 4 (Herbicidal rate of 70% or more and less than 90%); J: blackgrass, herbicidal effect grade [21]: 0 (Herbicidal rate of 5% or less (almost no effect)); G (green foxtail) herbicidal effect grade [22, 29]: 2 (Herbicidal rate of 20% or more and less than 40%); N: redroot pigweed, herbicidal effect grade [23]: 3 (Herbicidal rate of 40% or more and less than 70%); Herbicidal effect on E (rice flat sedge), foliage application [24, 30]: 3 (Herbicidal rate of 40% or more and less than 70%); F: southern crabgrass, herbicidal effect grade [25]: 0 (Herbicidal rate of 5% or less (almost no effect)); H (barnyard grass) herbicidal effect grade [26, 29]: 3 (Herbicidal rate of 40% or more and less than 70%); P: chickweed, herbicidal effect grade [27]: 0 (Herbicidal rate of 5% or less (almost no effect)); R (persian speedwell) herbicidal effect grade [28, 29]: 4 (Herbicidal rate of 70% or more and less than 90%)

For `CCCC(=O)Oc1c(C)nn(C)c(=O)c1-c1c(-n2cc(Cl)cn2)sc2ccccc12` [Compound No. 1-098, 1,3-dimethyl-6-oxo-5-(2-(4-chloro-1H-pyrazol-1-yl)benzo[b]thiophen-3-yl)-1,6-dihydropyridazin-4-yl=(n-butyrate)], which “herbicidal effect rating, M: velvetleaf” value [1] is on record?
Its value is 3 (Herbicidal rate of 40% or more and less than 70%).

And the “herbicidal effect rating, G: green foxtail” value [2]?
Its value is 0 (Herbicidal rate of 5% or less (almost no effect)).

And the “herbicidal effect rating, H: barnyard grass” value [3]?
The value was 0 (Herbicidal rate of 5% or less (almost no effect)).

And the “L: windgrass, herbicidal effect” value [4, 31]?
The value was 0 (Herbicidal rate of 5% or less (almost no effect)).

And the “herbicidal effect rating, O: lambsquarters” value [5]?
The value was 4 (Herbicidal rate of 70% or more and less than 90%).

What about the “F: southern crabgrass, herbicidal effect” value [6, 31] of the same compound?
Its value is 0 (Herbicidal rate of 5% or less (almost no effect)).

And the “O: lambsquarters, herbicidal effect” value [7, 31]?
The value was 5 (Herbicidal rate of 90% or more (almost completely withered)).

And the “herbicidal effect on H (barnyard grass), rating 0-5” value ([8]; 320 g/ha)?
The value was 0 (Herbicidal rate of 5% or less (almost no effect)).

And the “K: Italian ryegrass, herbicidal effect” value [9, 31]?
The value was 2 (Herbicidal rate of 20% or more and less than 40%).

And the “J: blackgrass, herbicidal effect” value [10, 31]?
Its value is 0 (Herbicidal rate of 5% or less (almost no effect)).

What about the “herbicidal effect rating, Q: false cleavers” value [11] of the same compound?
The value was 0 (Herbicidal rate of 5% or less (almost no effect)).

What about the “herbicidal effect on D (Chinese sprangletop), rating 0-5” value ([12]; 320 g/ha) of the same compound?
Its value is 0 (Herbicidal rate of 5% or less (almost no effect)).

And the “N: redroot pigweed, herbicidal effect” value [13, 31]?
Its value is 5 (Herbicidal rate of 90% or more (almost completely withered)).

What about the “M: velvetleaf, herbicidal effect” value [14, 31] of the same compound?
The value was 0 (Herbicidal rate of 5% or less (almost no effect)).

And the “herbicidal effect rating, I: wild oat” value [15]?
The value was 0 (Herbicidal rate of 5% or less (almost no effect)).

What about the “herbicidal effect rating, L: windgrass” value [16] of the same compound?
Its value is 0 (Herbicidal rate of 5% or less (almost no effect)).

And the “I: wild oat, herbicidal effect” value [17, 31]?
The value was 0 (Herbicidal rate of 5% or less (almost no effect)).

And the “herbicidal effect rating, R: persian speedwell” value [18]?
The value was 0 (Herbicidal rate of 5% or less (almost no effect)).

And the “P: chickweed, herbicidal effect” value [19, 31]?
The value was 5 (Herbicidal rate of 90% or more (almost completely withered)).

What about the “herbicidal effect rating, K: Italian ryegrass” value [20] of the same compound?
The value was 0 (Herbicidal rate of 5% or less (almost no effect)).

And the “herbicidal effect rating, J: blackgrass” value [21]?
The value was 0 (Herbicidal rate of 5% or less (almost no effect)).

What about the “G: green foxtail, herbicidal effect” value [22, 31] of the same compound?
The value was 2 (Herbicidal rate of 20% or more and less than 40%).

And the “herbicidal effect rating, N: redroot pigweed” value [23]?
Its value is 0 (Herbicidal rate of 5% or less (almost no effect)).

What about the “herbicidal effect on E (rice flat sedge), rating 0-5” value ([24]; 320 g/ha) of the same compound?
The value was 4 (Herbicidal rate of 70% or more and less than 90%).

And the “herbicidal effect rating, F: southern crabgrass” value [25]?
The value was 0 (Herbicidal rate of 5% or less (almost no effect)).

And the “H: barnyard grass, herbicidal effect” value [26, 31]?
Its value is 3 (Herbicidal rate of 40% or more and less than 70%).

And the “herbicidal effect rating, P: chickweed” value [27]?
Its value is 3 (Herbicidal rate of 40% or more and less than 70%).

And the “R: persian speedwell, herbicidal effect” value [28, 31]?
The value was 3 (Herbicidal rate of 40% or more and less than 70%).
